Experiment [1] has as its system enzyme of the present invention (KDNase). Put plainly: Inhibition and activation of the enzyme, 4-MU-KDN method. Particulars: for effect on the activity of the enzyme: added at 1 mM. Type of experiment: biochemical, Sphingobacterium mOL12-4s. Here is the method:
Specifically, 1.4 nmol of 4-MU-KDN was added to an enzyme solution prepared by dissolving the enzyme in 20 μl of 0.1M Tris-acetate buffer (pH 6.0)/0.1M NaCl to perform a reaction at 25° C. for 30 minutes. After the reaction, an aliquot of the reaction solution (20 μl) was mixed with 2.5 ml of 85 mM glycine-carbonate buffer (pH 9.3) to measure the fluorescent strength (exciting wavelength: 365 nm, measuring wavelength: 450 nm). For the measurement of the fluorescent strength, reference was made to Biochemistry, Vol. 18, No. 13, pp. 2783-2787. A fluorescent strength, which was obtained when the reaction was performed in the same manner as described above except that the enzyme was not added, was used as control. An amount of the enzyme, which hydrolyzed 1 nmol of 4-MU-KDN per 1 minute at 25° C., was defined as 1 unit.
In order to investigate influences of, for example, inorganic ions and EDTA (ethylenediaminetetraacetic acid) on the activity of the enzyme of the present invention, these compounds were added to the reaction solution to perform the enzyme reaction in accordance with the 4-MU-KDN method.
The influence of the ionic strength on the enzyme of the present invention was investigated.
2,3-Dehydro-2-deoxy-N-acetylneuraminic acid is a specific inhibitor for known sialidase which cleaves the ketosidic linkage formed by N-acylneuraminic acid.

Experiment [2] shares this test system. Put plainly: Substrate specificity: cleavage of ketosidic linkage, detected by thin layer chromatography. The class given is biochemical, Sphingobacterium mOL12-4s. Further details: key to Presence or absence of cleavage: Those in which KDN, Neu5Ac, or Neu5Gc was liberated are indicated by "+"; those in which KDN, Neu5Ac, or Neu5Gc was not liberated at all are indicated by "-". Particulars: for Presence or absence of cleavage: substrate corresponding to 5 μg KDN, Neu5Ac or Neu5Gc, enzyme 80 milliunits, 25° C., 20 hours, pH 6.0, 0.1M NaCl. On the procedure: The reactivity of the enzyme of the present invention was investigated for various KDN-containing complex carbohydrates and carbohydrates and sialic acid-containing complex carbohydrates and carbohydrates.
Each of the foregoing complex carbohydrates or carbohydrates containing KDN or sialic acid, which corresponded to 5 μg of KDN or N-acetylneuraminicacid (Neu5Ac) or N-glycolylneuraminic acid (Neu5Gc), was allowed to coexist with the enzyme of the present invention (80 milliunits) at 25° C. for 20 hours in 10 μl of 0.1M Tris-acetate buffer (pH 6.0) containing 0.1M NaCl.
The reaction solution was spotted on a plate for silica gel thin layer chromatography (produced by Merck), and developed for 7 hours with 1-propanol: 25% aqueous ammonia: water=6:1:2.5 (volume ratio). After the development, the plate was dried, on which 10% sulfuric acid ethanol solution was sprayed. The plate was heated at 120° C. to cause color development for the complex carbohydrates or carbohydrates and liberated KDN, Neu5Ac, or Neu5Gc. A control was provided, in which the reaction was performed without addition of the enzyme. Those in which KDN, Neu5Ac, or Neu5Gc was liberated are indicated by "+", and those in which KDN, Neu5Ac, or Neu5Gc was not liberated at all are indicated by "-".

For experiment [3] the test system is unchanged. Put plainly: Measurement of Michaelis constant and Vmax with 4-MU-KDN as substrate. Type of experiment: biochemical, Sphingobacterium mOL12-4s. Particulars: 25° C.; for Vmax: pH 6.0. On the procedure:
The Michaelis constant (Km) and the maximum enzyme reaction velocity (Vmax) were determined on condition that 4-methylumbelliferyl KDN (4-MU-KDN) was used as a substrate for the enzyme of the present invention. The enzyme (32 milliunits) and the substrate (4-MU-KDN, 6.7 μM) were reacted at 25° C. in 216 μl of a reaction solution (0.1M Tris-acetate buffer (pH 6.0)/0.1M NaCl containing 0.1 mg/ml of bovine serum albumin). As a result, 4-methylumbelliferone (4-MU) was liberated linearly within 1 hour.
At this enzyme concentration, initial reaction velocities were measured by performing the reaction at 25° C. for 30 minutes in the same reaction solution as described above while variously changing the concentration of 4-MU-KDN in a range of 21 to 167 μM. A Lineweaver-Burkplot was obtained, and thus the Michaelis constant was calculated.

Experiment [4] has as its system Sphingobacterium mOL12-4s. Nature of the experiment: Induction of KDNase in Sphingobacterium mOL12-4s. The conditions noted are these: for Number of cells: 0.1% (w/v) added substance in M9 liquid medium, 6.1×10^10 cells inoculated; for Number of cells / KDNase activity per cells / Number of cells, ratio to before addition (value in []) / KDNase activity: 25° C., 24 hours; for Number of cells, ratio to before addition (value in []): before addition = 1; for KDNase activity: supernatant of disrupted cells; for fold induction at 1000 µg/mL: 24 h. On the procedure:
Bacterial cells (4.0×10^8) of Sphingobacterium mOL12-4s were inoculated into 40 ml of M9 liquid medium containing 1% (w/v) casein hydrolysate (casamino acid, produced by Gibco) and 1% (w/v) glucose (Glc), and cultivated at 25° C. for 44 hours. Microbial cells (bacterial cells) at the growth phase were collected, and washed twice with M9 liquid medium. The microbial cells (6.1×10^10 cells) were inoculated into 2.0 ml of M9 liquid medium containing 0.1% (w/v) crude KDN-OS, KDN-OS, KDN, Neu5Ac, acid hydrolysate of colominic acid (oligo-Neu5Ac; Kitazume, S. et al., Anal. Biochem., 202, 25-34 (1992)), or Glc, and incubated at 25° C. for 24 hours to measure the number of growable cells and the KDNase activity. The number of cells was determined by diluting each incubated cell cultivation liquid to inoculate an obtained diluted solution into an LB agar medium plate, and counting a number of grown colonies (Kitajima, K. et al., J. Biol. Chem., 269, 21415-21419). In order to measure the KDNase activity of the cells, the cells were collected by means of centrifugation at 5,000 rpm or 1,500× g for 10 minutes. The collected cells were suspended in 0.5 ml of 100 mM Tris-acetate buffer (pH 6.0) containing 100 mM NaCl, and disrupted by means of ultrasonication (50 watts, 1 minute). The disrupted preparation was centrifuged at 10,000 rpm or 6,000× g for 10 minutes to subsequently obtain a supernatant for which the KDNase activity was measured. The numerical value in [] in Table 1 indicates a ratio provided that the activity before the addition is regarded as 1.

Setting [5] is: read-out: KDNase activity per cells, ratio to before addition (value in []).
[6] abbreviates: read-out: KDNase activity, ratio to before addition (value in []).

This note sets out measurements from patent US5834288A, “KDN-specific deminoneuraminidase from Sphingobacterium multivorum” (Seikagaku Corporation, priority 1994, dated 1998).

“Also recorded” adds a separate entry of the source. Read-outs that look alike come from different tables or passages of the source.

With `CC(=O)N[C@H]1[C@H]([C@H](O)[C@H](O)CO)OC(C(=O)O)=C[C@@H]1O` [2,3-dehydro-2-deoxy-N-acetylneuraminic acid], the “inhibition of the enzyme” value in experiment [1] (concentration not given) is “not inhibited”.

One may read the Km as the substrate concentration at which the rate is half of its maximum. With `Cc1cc(=O)oc2cc(OC3(C(=O)O)C[C@H](O)[C@@H](O)[C@H]([C@H](O)[C@H](O)CO)O3)ccc12` (stereo partly drawn) [4-MU-KDN, 4-methylumbelliferyl KDN], the “action of the enzyme on the ketosidic linkage (in words)” value is “acts on” in experiment [2] and “can also act on” in experiment [2] (listed as 4-methylumbelliferyl KDN). Moreover, the “Presence or absence of cleavage” value in experiment [2] is listed as “+”. Moreover, the Vmax in experiment [3] was determined as 7.4 mM/min/mg protein; in experiment [3] (enzyme 32 milliunits in 216 μl), 0.19 µM/min. In addition, the Km in experiment [3] (pH 6.0, 0.1M NaCl, 0.1 mg/ml BSA, Lineweaver-Burk plot, 21 to 167 μM substrate) came to 19 µM.

For `CC(=O)NC1C(O)CC(Oc2ccc3c(C)cc(=O)oc3c2)(C(=O)O)OC1C(O)C(O)CO` (stereo not drawn) [4-MU-Neu5Ac, 4-Methylumbelliferyl Neu5Ac], in experiment [2], the “Presence or absence of cleavage” value is reported as “-”.

In the case of `O=C(O)CN(CCN(CC(=O)O)CC(=O)O)CC(=O)O` [EDTA, ethylenediaminetetraacetic acid], the “effect on the activity of the enzyme” value in experiment [1] is “not affected”.

In the case of `O=C[C@H](O)[C@@H](O)[C@H](O)[C@H](O)CO` [Glc, glucose], the Number of cells in experiment [4] is 1.7 × 10^12. In experiment [4] (0.1% (w/v)), the “KDNase activity per cells” value came to 0.47 milliunit/10^10 cells; the “Number of cells, ratio to before addition (value in [])” value (shortened to “Number of cells, ratio”) turned out to be 28; the KDNase activity is given as 80 milliunit. Moreover, the fold induction at 1000 µg/mL in experiment [4] (setting [5]) was 0.14. For the same molecule, in experiment [4] (setting [6]), the fold induction at 1000 µg/mL worked out at 4.

On to `O=C(O)C1(O)CC(O)C(O)C(C(O)C(CO)OC2(C(=O)O)CC(O)C(O)C(C(O)C(O)CO)O2)O1` (stereo not drawn) [KDN dimer, KDNα2→8KDN], for which the “Presence or absence of cleavage” value in experiment [2] was “+”.

In the case of `O=C(O)C1(O)C[C@H](O)[C@@H](O)[C@H]([C@H](O)[C@H](O)CO)O1` (stereo partly drawn) [KDN, 3-deoxy-D-glycero-D-galacto-nonulosonic acid], in experiment [4] (0.1% (w/v)), the “induction of KDNase (in words)” value is “induced KDNase”; the “KDNase activity per cells” value was 11 milliunit/10^10 cells; the “Number of cells, ratio” value was 0.59; the KDNase activity came out at 38 milliunit. Also, the Number of cells in experiment [4] was 3.6 × 10^10. Also, the fold induction at 1000 µg/mL in experiment [4] (setting [5]) stood at 3.3. In addition, the fold induction at 1000 µg/mL in experiment [4] (setting [6]) was determined as 1.9. In addition, in experiment [1] (3 mM), the “inhibition of the enzyme” value is listed as “inhibited”. In experiment [1] (concentration not given), the “inhibition of the enzyme” value was “inhibited”.

As to `[Cl-].[Na+]` [NaCl], in experiment [1] (50 mM or less), the “enzyme activity at low ionic strength” value is “extremely low”. In addition, the “concentration giving maximum enzyme activity (ionic strength)” value in experiment [1] (FIG. 10) amounted to 300 mM.

Turning to `CC(=O)NC1C(O)CC(OC(CO)C(O)C2OC(O)(C(=O)O)CC(O)C2NC(C)=O)(C(=O)O)OC1C(O)C(O)CO` (stereo not drawn) [Neu5Ac dimer, N-acetylneuraminic acid (Neu5Ac) dimer], the “Presence or absence of cleavage” value in experiment [2] was “-”.

`CC(=O)N[C@H]1[C@H]([C@H](O)[C@H](O)CO)OC(O)(C(=O)O)C[C@@H]1O` (stereo partly drawn) [Neu5Ac, N-acetylneuraminic acid]: the Number of cells in experiment [4] is given as 2.5 × 10^10. For the same molecule, in experiment [4] (0.1% (w/v)), the “KDNase activity per cells” value stood at 6.0 milliunit/10^10 cells; the “Number of cells, ratio” value was found to be 0.41; the KDNase activity turned out to be 15 milliunit. The fold induction at 1000 µg/mL in experiment [4] (setting [5]) came to 1.8. Further, the fold induction at 1000 µg/mL in experiment [4] (setting [6]) came out at 0.75.

For `CC(=O)NC(CO)C(OC1OC(CO)C(O)C(O)C1O)C(O)C(O)COC1(C(=O)O)CC(O)C(NC(C)=O)C(C(O)C(O)CO)O1` (stereo not drawn) [Neu5Acα2→6(Galβ1→3)GalNAcol], the “Presence or absence of cleavage” value in experiment [2] is recorded as “-”.

With `O=C(CO)NC1C(O)CC(OC(CO)C(O)C2OC(O)(C(=O)O)CC(O)C2NC(=O)CO)(C(=O)O)OC1C(O)C(O)CO` (stereo not drawn) [Neu5Gc dimer, N-glycolylneuraminic acid (Neu5Gc) dimer], the “Presence or absence of cleavage” value in experiment [2] was “-”.

Consider `[Ca+2]` [calcium ion], for which the “effect on the activity of the enzyme” value in experiment [1] is recorded as “not affected”.

On to `CC(=O)N[C@H]1[C@H]([C@H](O)[C@H](O)CO)OC(O)(C(=O)O)C[C@@H]1O` (stereo partly drawn) [free sialic acid, sialic acid], for which the “inhibition of the enzyme” value in experiment [1] (concentration not given) was “not inhibited”.

Turning to `[Mg+2]` [magnesium ion], the “effect on the activity of the enzyme” value in experiment [1] is given as “not affected”.

On to `[Mn+2]` [manganese ion], for which, in experiment [1], the “effect on the activity of the enzyme” value was “not affected”.

In the case of `C[C@H](CCC(=O)O)[C@H]1CC[C@H]2[C@@H]3[C@H](O)C[C@@H]4C[C@H](O)CC[C@]4(C)[C@H]3C[C@H](O)[C@]12C` [sodium cholate], the enzyme activity maintained entry in experiment [1] (0.1%, 30 min) is “about 90%”. For the same molecule, the “enzyme activity in the presence of the additive” value in experiment [1] (0.5%) is “substantially disappeared; also recorded: disappears”.

Consider “KDNα2→3Galβ1→4Glcβ1→Cer [KDN-containing ganglioside GM3]”, for which the “Presence or absence of cleavage” value in experiment [2] is “+”.

Consider “N-Acetylneuraminic acid lactose [Neu5Ac lactose]”, for which, in experiment [2], the “Presence or absence of cleavage” value is “-”.

Take Triton X-100: in experiment [1] (concentration not given), the “inhibition of the enzyme” value is on record as “not inhibited; also recorded: does not inhibit”.

For the molecule colominic acid, the “Presence or absence of cleavage” value in experiment [2] is recorded as “-”.

Take “fetal bovine serum fetuin: fetal bovine serum fetuin purchased from Sigma”: in experiment [2], the “Presence or absence of cleavage” value is recorded as “-”.

For “human transferrin: human transferrin purchased from Sigma”, in experiment [2], the “Presence or absence of cleavage” value is recorded as “-”.
